Data: ChEMBL document CHEMBL1201862, “PubChem BioAssay data set” (2004)
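Test compounds were applied to cells in 96-well plates for 48 hours at 5 doses. GI50 is the concentration that inhibits growth by half.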 Activity calls are given as the source filed them. Rule as the data show it: active = GI50 up to about 1.1 µM and inactive = higher.

Tests used:
Assay in all cases: NCI-60 cell line screen, 48 h
DLD-1 = tested on: DLD-1
DMS-114 = tested on: DMS-114
HOP-18 = tested on: HOP-18
KM-20L2 = tested on: KM-20L2
LXFL 529 = tested on: LXFL 529
M19-MEL = tested on: M19-MEL
SNB-78 = tested on: SNB-78
XF498 = tested on: XF498
RXF 631 = tested on: RXF 631

Compound: CN(C)CC1CC/C(=C\c2ccc(O)cc2)C1=O (configuration not stated)
- GI50 (DLD-1): 2.58 µM (inactive)
- GI50 (DMS-114): 10 µM (inactive)
- GI50 (HOP-18): 6.35 µM (inactive)
- GI50 (KM-20L2): 9.55 µM (inactive)
- GI50 (LXFL 529): 1.85 µM (inactive)
- GI50 (M19-MEL): 2.78 µM (inactive)
- GI50 (SNB-78): 11.4 µM (inactive)
- GI50 (XF498): 5.82 µM (inactive)

Compound: C/C(=N\N=C(/S)N(C)C)c1cccc[n+]1[O-]
- GI50 (DLD-1): 2.18 µM (inactive)
- GI50 (DMS-114): 0.482 µM (active)
- GI50 (HOP-18): > 100 µM (inactive)
- GI50 (KM-20L2): 5.61 µM (inactive)
- GI50 (LXFL 529): 0.466 µM (active)
- GI50 (M19-MEL): > 100 µM (inactive)
- GI50 (RXF 631): > 100 µM (inactive)
- GI50 (SNB-78): > 100 µM (inactive)

Compound: O=C1C=C(Br)C(=O)C12CCc1ccccc12 (configuration not stated)
- GI50 (DLD-1): 9.48 µM (inactive)
- GI50 (DMS-114): 20.7 µM (inactive)
- GI50 (HOP-18): 7.53 µM (inactive)
- GI50 (KM-20L2): 26.7 µM (inactive)
- GI50 (LXFL 529): 4.45 µM (inactive)
- GI50 (M19-MEL): 19 µM (inactive)
- GI50 (SNB-78): 22.6 µM (inactive)
- GI50 (XF498): 15.3 µM (inactive)

Compound: CO/S(=N/S(=O)(=O)c1ccccc1)c1ccccc1[N+](=O)[O-] (configuration not stated)
- GI50 (DLD-1): > 100 µM (inactive)
- GI50 (HOP-18): > 100 µM (inactive)
- GI50 (KM-20L2): > 100 µM (inactive)
- GI50 (LXFL 529): > 100 µM (inactive)
- GI50 (M19-MEL): > 100 µM (inactive)
- GI50 (RXF 631): > 100 µM (inactive)
- GI50 (XF498): > 100 µM (inactive)

Compound: c1ccc(SCCCC(Sc2ccccc2)Sc2ccccc2)cc1
- GI50 (DLD-1): > 100 µM (inactive)
- GI50 (DMS-114): > 100 µM (inactive)
- GI50 (KM-20L2): > 100 µM (inactive)
- GI50 (LXFL 529): > 100 µM (inactive)
- GI50 (M19-MEL): > 100 µM (inactive)
- GI50 (SNB-78): > 100 µM (inactive)
- GI50 (XF498): > 100 µM (inactive)

Compound: S=P(N1CCCC1)(N1CC1)N1CC1
- GI50 (DLD-1): > 100 µM (inactive)
- GI50 (DMS-114): 99.5 µM (inactive)
- GI50 (HOP-18): > 100 µM (inactive)
- GI50 (KM-20L2): > 100 µM (inactive)
- GI50 (M19-MEL): > 100 µM (inactive)
- GI50 (SNB-78): > 100 µM (inactive)
- GI50 (XF498): > 100 µM (inactive)

Compound: NC1=NN(c2ccccc2)C(=O)C1C(=O)CCC(=O)Nc1cccc(C(F)(F)F)c1 (configuration not stated)
- GI50 (DLD-1): 48.8 µM (inactive)
- GI50 (DMS-114): > 100 µM (inactive)
- GI50 (HOP-18): > 100 µM (inactive)
- GI50 (KM-20L2): 72.6 µM (inactive)
- GI50 (LXFL 529): 36.8 µM (inactive)
- GI50 (M19-MEL): > 100 µM (inactive)
- GI50 (RXF 631): > 100 µM (inactive)
- GI50 (SNB-78): > 100 µM (inactive)

Compound: CC(C)(C)/N=C1/CC(C)(C)c2ccccc2/C(=N\c2ccccc2)S1
- GI50 (DLD-1): 26.3 µM (inactive)
- GI50 (DMS-114): 26.7 µM (inactive)
- GI50 (KM-20L2): 31.8 µM (inactive)
- GI50 (LXFL 529): 29.9 µM (inactive)
- GI50 (M19-MEL): 36 µM (inactive)
- GI50 (SNB-78): 41.5 µM (inactive)
- GI50 (XF498): 21.1 µM (inactive)

Compound: O=C1C[C@H]2CC3(CC[C@H]2CN1)OCCO3
- GI50 (DLD-1): > 100 µM (inactive)
- GI50 (LXFL 529): > 100 µM (inactive)
- GI50 (M19-MEL): > 100 µM (inactive)
- GI50 (SNB-78): > 100 µM (inactive)
- GI50 (XF498): > 100 µM (inactive)

Compound: O=C1C(=O)N(c2ccc(Cl)c(Cl)c2)C(=O)C(=O)C1c1nc2ccccc2o1
- GI50 (DLD-1): 59.2 µM (inactive)
- GI50 (KM-20L2): > 100 µM (inactive)
- GI50 (LXFL 529): 93.8 µM (inactive)
- GI50 (M19-MEL): 58.7 µM (inactive)
- GI50 (RXF 631): 43.5 µM (inactive)
- GI50 (SNB-78): 66.4 µM (inactive)
- GI50 (XF498): 51.5 µM (inactive)

Compound: CCP(C)(=O)CC
- GI50 (DLD-1): > 100 µM (inactive)
- GI50 (DMS-114): > 100 µM (inactive)
- GI50 (HOP-18): > 100 µM (inactive)
- GI50 (KM-20L2): > 100 µM (inactive)
- GI50 (LXFL 529): > 100 µM (inactive)
- GI50 (M19-MEL): > 100 µM (inactive)
- GI50 (RXF 631): > 100 µM (inactive)
- GI50 (SNB-78): > 100 µM (inactive)
- GI50 (XF498): > 100 µM (inactive)

Compound: CC(C)C(Sc1nc(-c2ccccc2)c(-c2ccccc2)[nH]1)C(=O)N/N=C/c1ccc(Cl)cc1 (configuration not stated)
- GI50 (DLD-1): 36.1 µM (inactive)
- GI50 (DMS-114): 24.3 µM (inactive)
- GI50 (KM-20L2): 20.6 µM (inactive)
- GI50 (LXFL 529): 32.1 µM (inactive)
- GI50 (M19-MEL): 19.4 µM (inactive)
- GI50 (SNB-78): 28.7 µM (inactive)

Compound: O=C(CCC(=O)Nc1ccc(Cl)c(Cl)c1)CC(=O)c1ccc(Cl)cc1
- GI50 (DLD-1): > 100 µM (inactive)
- GI50 (DMS-114): > 100 µM (inactive)
- GI50 (HOP-18): 80.7 µM (inactive)
- GI50 (KM-20L2): > 100 µM (inactive)
- GI50 (LXFL 529): 83.9 µM (inactive)
- GI50 (M19-MEL): > 100 µM (inactive)
- GI50 (XF498): > 100 µM (inactive)

Compound: C#CCOCn1cnc2c(N)ncnc21
- GI50 (DLD-1): > 100 µM (inactive)
- GI50 (DMS-114): > 100 µM (inactive)
- GI50 (HOP-18): > 100 µM (inactive)
- GI50 (KM-20L2): > 100 µM (inactive)
- GI50 (LXFL 529): > 100 µM (inactive)
- GI50 (M19-MEL): > 100 µM (inactive)
- GI50 (RXF 631): > 100 µM (inactive)
- GI50 (SNB-78): > 100 µM (inactive)
- GI50 (XF498): > 100 µM (inactive)

Compound: O=C(c1ccc([N+](=O)[O-])cc1[N+](=O)[O-])N(/N=C/C=C/c1ccccc1)c1nnc(-c2ccccc2)c(-c2ccccc2)n1
- GI50 (DLD-1): 34.8 µM (inactive)
- GI50 (DMS-114): 29.2 µM (inactive)
- GI50 (KM-20L2): > 100 µM (inactive)
- GI50 (M19-MEL): 36.7 µM (inactive)
- GI50 (XF498): 17.6 µM (inactive)

Compound: N#CC(NNC(=O)c1ccccc1O)c1ccc(O)cc1 (configuration not stated)
- GI50 (DMS-114): 2.3 µM (inactive)
- GI50 (HOP-18): 9.1 µM (inactive)
- GI50 (KM-20L2): 23.4 µM (inactive)
- GI50 (LXFL 529): 4.06 µM (inactive)
- GI50 (M19-MEL): 5.38 µM (inactive)

Compound: COC(=O)C1=CC(=O)[C@@H]2CCCC[C@H]12
- GI50 (DLD-1): > 100 µM (inactive)
- GI50 (DMS-114): > 100 µM (inactive)
- GI50 (HOP-18): > 100 µM (inactive)
- GI50 (KM-20L2): > 100 µM (inactive)
- GI50 (LXFL 529): > 100 µM (inactive)
- GI50 (M19-MEL): > 100 µM (inactive)
- GI50 (RXF 631): > 100 µM (inactive)
- GI50 (SNB-78): > 100 µM (inactive)

Compound: O=C(CC(=O)n1nc(-c2ccccc2)c(/N=N/c2ccccc2Cl)c1-c1ccccc1)Nc1ccc(Cl)cc1
- GI50 (DLD-1): > 43.6 µM (inactive)
- GI50 (DMS-114): > 41.7 µM (inactive)
- GI50 (HOP-18): > 100 µM (inactive)
- GI50 (KM-20L2): > 57.3 µM (inactive)
- GI50 (LXFL 529): > 100 µM (inactive)
- GI50 (M19-MEL): 21.7 µM (inactive)
- GI50 (XF498): > 100 µM (inactive)

Compound: Cc1ccc(C2=C(c3ccccc3)C(Br)(c3ccccc3)C(c3ccccc3)=C2c2ccc(C)cc2)cc1
- GI50 (DLD-1): > 100 µM (inactive)
- GI50 (DMS-114): > 100 µM (inactive)
- GI50 (HOP-18): > 100 µM (inactive)
- GI50 (KM-20L2): > 100 µM (inactive)
- GI50 (LXFL 529): > 100 µM (inactive)
- GI50 (M19-MEL): > 100 µM (inactive)
- GI50 (SNB-78): > 100 µM (inactive)
- GI50 (XF498): > 100 µM (inactive)

Compound: Cc1ccccc1C(=O)c1ccccc1O
- GI50 (DLD-1): > 100 µM (inactive)
- GI50 (DMS-114): > 100 µM (inactive)
- GI50 (HOP-18): > 100 µM (inactive)
- GI50 (KM-20L2): > 100 µM (inactive)
- GI50 (LXFL 529): > 100 µM (inactive)
- GI50 (M19-MEL): > 100 µM (inactive)
- GI50 (RXF 631): > 100 µM (inactive)
- GI50 (SNB-78): > 100 µM (inactive)
- GI50 (XF498): > 100 µM (inactive)

Compound: N#CCCC(C#N)(C#N)CCC#N
- GI50 (DMS-114): > 100 µM (inactive)
- GI50 (KM-20L2): > 100 µM (inactive)
- GI50 (LXFL 529): > 100 µM (inactive)
- GI50 (M19-MEL): > 100 µM (inactive)
- GI50 (XF498): > 100 µM (inactive)

Compound: CCC1(c2c(F)c(F)c(N)c(F)c2F)CCC(=O)NC1=O (configuration not stated)
- GI50 (DLD-1): > 100 µM (inactive)
- GI50 (DMS-114): > 100 µM (inactive)
- GI50 (HOP-18): > 100 µM (inactive)
- GI50 (LXFL 529): > 100 µM (inactive)
- GI50 (M19-MEL): > 100 µM (inactive)
- GI50 (SNB-78): > 100 µM (inactive)
- GI50 (XF498): > 100 µM (inactive)

Compound: COc1ccc(Cc2cc(OC)c(OC)c(OC)c2)cc1
- GI50 (DLD-1): 0.33 µM (active)
- GI50 (KM-20L2): 0.181 µM (active)
- GI50 (LXFL 529): 0.541 µM (active)
- GI50 (SNB-78): 3.34 µM (inactive)

Compound: CN(CO)c1nc(N(C)CO)nc(N(C)CO)n1 [TRIMELAMOL]
- GI50 (DLD-1): 10.2 µM (inactive)
- GI50 (HOP-18): 18.8 µM (inactive)
- GI50 (KM-20L2): 8.85 µM (inactive)
- GI50 (M19-MEL): 8.04 µM (inactive)
- GI50 (SNB-78): 9.77 µM (inactive)
- GI50 (XF498): 5.75 µM (inactive)
